The source of these data is patent US20050118664A1, “Fluorogenic protease substrates” (priority 2002, published 2005).

Where a SMILES comes first, the peptide text is derived from it. The star is where a group is joined. X1 = CN(C)c1ccc2c(-c3cc(NC(=O)C*)ccc3C(=O)[O-])c3ccc(=[N+](C)C)cc-3oc2c1

The target of data set [1] is T1, PfSUB-1 (Plasmodium falciparum, UniProt O61142).
T1 construct: made in house; host or cells: baculovirus/insect cell system
As to the kind of experiment: Multi-well fluorescence assay of PfSUB-1 activity with or without inhibitor. The class given is biochemical. Here is the method: Purified recombinant PfSUB-1 at a range of concentrations in digestion buffer was dispensed into 50 μl aliquots in wells of white 96-well microtitre plates (FluoroNunc, NUNC). […] Plates were sealed and incubated at 37° C. for 18 h before being read on a Perkin Elmer LS-50B Luminescence spectrometer fitted with a LS50B WPR multi-plate reader accessory. Measurements were performed at an excitation wavelength of 552 nm, slit width 4 nm, and an emission wavelength of 580 nm, slit width 2.5 nm. Data collection was managed using Perkin Elmer FL WinLab software.

For data set [2], the target named is T1, PfSUB-1. The conditions noted are these: from reference [4]; cited from earlier work.
For data set [3], the target named is T1, PfSUB-1. The data set can be described thus: Protease digestion of fluorogenic substrate with recombinant PfSUB-1, fluorescence readout. The class given is biochemical. Here is the method: (§1) All dye concentrations were determined from the absorption at 528 nm, with ε 52,000 M^−1cm^−1 [5]. Solutions of pepF1-R and its isomer derived from 5-IATR were prepared at ˜4 μM by dilution from stock DMSO solutions into digestion buffer (20 mM Tris, 50 mM NaCl, 12 mM CaCl2, 0.05% NP-40 (w/v), pH 7.6). It was necessary to include NP-40 detergent (Boehringer Mannheim) in all buffers containing the labelled peptides to avoid non-specific adsorption to glass and plasticware. Portions (4 ml) of each solution were treated with an aliquot of pronase (16 μl of 1 mg ml^−1 in the same buffer) and incubated at room temperature for 30 min. Absorbance spectra of these solutions and of the corresponding labelled peptides prior to pronase treatment were recorded (Beckman DU640 spectrophotometer).
(§2) For protease digestion experiments, pepF1-R was diluted directly from DMSO stocks into digestion buffer (20 mM Tris-HCl pH 7.6, 50 mM NaCl, 12 mM CaCl2, ±0.05% w/v Nonidet P40). The DMSO concentration in digestion experiments was maintained below 1% (v/v).
A sample of pepF1-R digested with PfSUB-1 was subjected to RP-HPLC-fractionation (Vydac 4.6 mm×25 cm C18 reversed-phase column, eluted at 1 ml min^−1 with a 4.5-58.5% (v/v) gradient of acetonitrile in 0.1% TFA). In addition to a small peak at 38.5 min corresponding to residual pepF1-R, two large new fluorescent peaks of equal height were evident, with retention times of 29.6 and 34.0 min.
(§3) For these measurements, the compound was diluted 200-fold from a 230 μM stock solution in DMSO into 20 mM Tris-HCl pH 7.6. Identical spectra were obtained upon dilution into 20 mM acetate buffer, pH 5.0, or 20 mM ethanolamine pH 10.0. All buffer solutions contained 0.05% NP-40 detergent (w/v).

The next data set deals with pronase. As to the kind of experiment: Protease digestion of fluorogenic substrate with pronase, fluorescence readout. The class given is biochemical. Here is the method:
as §1, §2, §3

Data set [4] addresses T1, PfSUB-1. The conditions noted are these: recombinant PfSUB-1 and authentic parasite-derived enzyme; reference [4]; cited from earlier work.

T1 sequence (O61142 220-690): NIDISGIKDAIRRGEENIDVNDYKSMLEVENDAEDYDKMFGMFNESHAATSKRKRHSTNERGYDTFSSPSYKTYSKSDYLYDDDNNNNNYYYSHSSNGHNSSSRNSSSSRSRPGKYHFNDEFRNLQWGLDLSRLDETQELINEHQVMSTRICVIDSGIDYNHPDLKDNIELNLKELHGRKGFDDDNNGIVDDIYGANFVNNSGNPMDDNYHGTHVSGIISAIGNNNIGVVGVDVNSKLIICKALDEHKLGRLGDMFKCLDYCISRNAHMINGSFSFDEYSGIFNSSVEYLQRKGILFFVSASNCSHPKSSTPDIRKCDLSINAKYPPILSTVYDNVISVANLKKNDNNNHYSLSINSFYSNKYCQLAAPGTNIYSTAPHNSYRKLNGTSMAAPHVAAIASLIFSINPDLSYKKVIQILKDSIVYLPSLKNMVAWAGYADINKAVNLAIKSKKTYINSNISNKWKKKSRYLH

In the case of `O=C(O)c1cc[c]([Hg+])cc1.[OH-]` [pHMB, p-hydroxymercuribenzoate], the “fluorescence increase of pepF1-R with inhibitor-pre-treated PfSUB-1” value at PfSUB-1 [1] (PfSUB-1 pre-treated with 1 mM inhibitor) is “no fluorescence increase”. Besides, on PfSUB-1 [1] (multi-well assay, 0.5 μl 100 mM pHMB per 50 μl well, 30 min pre-mix, 37° C. 18 h), the “effect of inhibitor on PfSUB-1-dependent fluorescence increase of pepF1-R” value is on record as “virtually completely ablated”. Also, at PfSUB-1 [2], the “inhibition of PfSUB-1 (in words)” value is “potent inhibitor”.

Take `CC[C@H](C)[C@H](NC(=O)[C@H](CC(=O)O)NC(=O)[C@@H](NC(=O)[C@H](CC(N)=O)NC(=O)[C@H](CC(=O)O)NC(=O)[C@H](C)NC(=O)[C@H](CO)NC(=O)[C@@H](NC(=O)[C@H](CSCC(=O)Nc1ccc(C(=O)[O-])c(-c2c3ccc(=[N+](C)C)cc-3oc3cc(N(C)C)ccc23)c1)NC(C)=O)C(C)C)[C@@H](C)CC)C(=O)N[C@@H](CSCC(=O)Nc1ccc(C(=O)[O-])c(-c2c3ccc(=[N+](C)C)cc-3oc3cc(N(C)C)ccc23)c1)C(=O)O` [pepF1-R] (Ac-C(X1)VSADNIDIC(X1)-OH): the solubility was at most 50 µM. Also, the “increase in fluorescence on cleavage” value at PfSUB-1 [3] (addition of recombinant PfSUB-1, 20 mM Tris-HCl pH 7.6, 0.05% NP-40, ex 552 nm, em 580 nm) is on record as “greater than 25 fold”. Besides, the “cleavage site of substrate (RP-HPLC / mass spectrometry of products)” value on PfSUB-1 [3] (digested with PfSUB-1) is given as “cleavage at the Asp-Asn bond”. Besides, the “fluorescence change on incubation with protease (in words)” value at PfSUB-1 [3] (purified recombinant PfSUB-1, digestion buffer) is given as “dramatic, time-dependent increase in fluorescence”. For the same compound, in the data set on pronase (addition of pronase, 20 mM Tris-HCl pH 7.6, 0.05% NP-40, ex 552 nm, em 580 nm), the “increase in fluorescence on cleavage” value is reported as “greater than 25 fold”. The “fluorescence change on incubation with protease (in words)” value with pronase (pronase, digestion buffer) was “dramatic, time-dependent increase in fluorescence”.

As to “Ac-LVSADNIDIS—OH: N-acetylated synthetic decapeptide based on the PfSUB-1 autocatalytic cleavage site (Ac-LVSADNIDIS-OH)”, in the data set with PfSUB-1 [4], the “cleavage by PfSUB-1 (in words)” value was “cleaved at the Asp-Asn bond”.
